Measurements reported in ChEMBL document CHEMBL5465560, “Selectivity Literature for EUbOPEN Chemogenomic Library” (2024).

Experiments:
[1] = biological target: T1, Interleukin-1 receptor-associated kinase 4 (Homo sapiens) (UniProt Q9NWZ3); assay: Selectivity interaction (Kinase panel (KiNativ target engagement assay in Jurkat cells)) EUB0001635a IRAK4; type: cell-based; conditions: Selectivity number of off-targets 0.0, Selectivity number of targets 233.0, Source Knowledge https://www.sciencedirect.com/science/article/pii/S2451945619300674?via%3Dihub, at 1 µM
T1 sequence (whole entry): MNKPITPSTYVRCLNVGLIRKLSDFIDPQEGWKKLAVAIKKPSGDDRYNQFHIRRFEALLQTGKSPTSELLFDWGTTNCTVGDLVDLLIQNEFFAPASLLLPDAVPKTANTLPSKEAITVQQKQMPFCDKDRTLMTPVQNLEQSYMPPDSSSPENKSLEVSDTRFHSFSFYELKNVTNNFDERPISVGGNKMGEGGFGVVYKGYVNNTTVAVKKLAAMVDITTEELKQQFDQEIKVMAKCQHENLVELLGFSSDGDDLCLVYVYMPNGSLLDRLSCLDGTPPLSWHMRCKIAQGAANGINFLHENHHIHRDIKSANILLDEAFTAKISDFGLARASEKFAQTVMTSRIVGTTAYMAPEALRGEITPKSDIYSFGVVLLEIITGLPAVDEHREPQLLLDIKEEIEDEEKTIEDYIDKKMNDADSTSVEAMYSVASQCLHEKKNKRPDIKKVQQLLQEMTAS

[2] = biological target: STE20-like serine/threonine-protein kinase (Homo sapiens, UniProt Q9H2G2); assay: Selectivity interaction (Kinase panel (DSF assay)) EUB0001559a SLK
Sequence of STE20-like serine/threonine-protein kinase (Q9H2G2 whole entry, looked up): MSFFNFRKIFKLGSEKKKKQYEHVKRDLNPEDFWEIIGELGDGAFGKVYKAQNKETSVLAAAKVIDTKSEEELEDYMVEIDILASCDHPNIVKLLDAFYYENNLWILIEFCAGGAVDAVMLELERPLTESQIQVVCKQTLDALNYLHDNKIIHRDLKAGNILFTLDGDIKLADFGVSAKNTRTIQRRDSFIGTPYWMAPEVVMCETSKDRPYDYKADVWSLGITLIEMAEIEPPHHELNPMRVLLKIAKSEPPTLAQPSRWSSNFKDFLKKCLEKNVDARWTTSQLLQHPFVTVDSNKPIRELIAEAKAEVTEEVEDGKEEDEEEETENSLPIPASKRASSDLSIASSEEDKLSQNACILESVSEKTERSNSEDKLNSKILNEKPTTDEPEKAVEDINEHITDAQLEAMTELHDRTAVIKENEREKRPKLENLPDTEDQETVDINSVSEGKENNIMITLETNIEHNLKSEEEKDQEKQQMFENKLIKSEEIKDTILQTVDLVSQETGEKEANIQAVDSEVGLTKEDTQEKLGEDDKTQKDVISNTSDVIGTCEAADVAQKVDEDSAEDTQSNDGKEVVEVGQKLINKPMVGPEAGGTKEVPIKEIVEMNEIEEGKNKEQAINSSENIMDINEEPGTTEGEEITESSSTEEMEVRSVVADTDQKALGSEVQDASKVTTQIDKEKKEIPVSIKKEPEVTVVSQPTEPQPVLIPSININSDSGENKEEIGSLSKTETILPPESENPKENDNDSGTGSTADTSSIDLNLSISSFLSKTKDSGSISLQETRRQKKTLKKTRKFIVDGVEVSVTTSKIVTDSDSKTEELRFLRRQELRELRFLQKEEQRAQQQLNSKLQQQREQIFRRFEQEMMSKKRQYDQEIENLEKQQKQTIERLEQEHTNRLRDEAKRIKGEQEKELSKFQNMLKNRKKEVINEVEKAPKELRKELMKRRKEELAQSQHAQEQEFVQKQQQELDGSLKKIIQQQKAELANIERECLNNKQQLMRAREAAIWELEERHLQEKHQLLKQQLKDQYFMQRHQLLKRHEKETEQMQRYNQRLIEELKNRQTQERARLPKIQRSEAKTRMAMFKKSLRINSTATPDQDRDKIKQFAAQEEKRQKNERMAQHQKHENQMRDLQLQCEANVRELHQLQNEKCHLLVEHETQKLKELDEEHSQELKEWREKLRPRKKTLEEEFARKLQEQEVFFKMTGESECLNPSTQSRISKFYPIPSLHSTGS

[3] = tested on: Proto-oncogene tyrosine-protein kinase receptor Ret (Homo sapiens), P07949 [V804L]; assay: (§1) Selectivity interaction (KinomeScan (DiscoverX)) EUB0001079a RET; conditions: at 1 µM
Sequence of Proto-oncogene tyrosine-protein kinase receptor Ret (Homo sapiens), P07949 [V804L] (P07949 whole entry V804L): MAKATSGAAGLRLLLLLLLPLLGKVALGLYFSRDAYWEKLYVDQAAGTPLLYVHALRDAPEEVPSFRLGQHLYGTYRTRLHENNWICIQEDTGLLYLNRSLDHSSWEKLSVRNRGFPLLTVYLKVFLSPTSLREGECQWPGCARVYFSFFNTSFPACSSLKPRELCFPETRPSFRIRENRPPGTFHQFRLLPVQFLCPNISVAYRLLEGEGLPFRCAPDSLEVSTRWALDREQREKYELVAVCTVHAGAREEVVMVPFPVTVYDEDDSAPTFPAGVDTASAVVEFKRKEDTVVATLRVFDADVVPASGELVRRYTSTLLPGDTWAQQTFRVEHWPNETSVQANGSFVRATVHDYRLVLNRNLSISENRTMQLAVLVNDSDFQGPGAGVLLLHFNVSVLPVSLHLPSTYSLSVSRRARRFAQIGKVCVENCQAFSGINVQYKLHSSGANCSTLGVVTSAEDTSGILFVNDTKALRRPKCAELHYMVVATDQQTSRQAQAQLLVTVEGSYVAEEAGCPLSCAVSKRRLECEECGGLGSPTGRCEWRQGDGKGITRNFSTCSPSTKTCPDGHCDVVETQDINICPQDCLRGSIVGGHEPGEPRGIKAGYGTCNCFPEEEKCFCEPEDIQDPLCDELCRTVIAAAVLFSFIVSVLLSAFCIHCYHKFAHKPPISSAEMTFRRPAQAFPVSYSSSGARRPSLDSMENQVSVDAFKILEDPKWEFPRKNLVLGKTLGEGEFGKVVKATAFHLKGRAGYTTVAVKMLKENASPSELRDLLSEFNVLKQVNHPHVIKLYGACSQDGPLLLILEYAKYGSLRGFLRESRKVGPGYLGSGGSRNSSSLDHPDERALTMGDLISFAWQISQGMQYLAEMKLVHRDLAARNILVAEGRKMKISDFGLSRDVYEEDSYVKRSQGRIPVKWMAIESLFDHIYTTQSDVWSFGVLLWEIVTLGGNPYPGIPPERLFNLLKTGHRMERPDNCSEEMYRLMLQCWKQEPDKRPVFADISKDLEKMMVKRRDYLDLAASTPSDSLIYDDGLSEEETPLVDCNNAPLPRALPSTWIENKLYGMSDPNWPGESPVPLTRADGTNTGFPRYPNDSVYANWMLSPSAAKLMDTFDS

[4] = tested on: Proto-oncogene tyrosine-protein kinase receptor Ret (Homo sapiens), P07949 [M918T]; assay: as §1; conditions: at 1 µM
Sequence of Proto-oncogene tyrosine-protein kinase receptor Ret (Homo sapiens), P07949 [M918T] (P07949 whole entry M918T): as the sequence (P07949 whole entry V804L) above, with L804V, M918T counted along it

[5] = tested on: Proto-oncogene tyrosine-protein kinase receptor Ret (Homo sapiens), P07949 [V804M]; assay: as §1; conditions: at 1 µM
Sequence of Proto-oncogene tyrosine-protein kinase receptor Ret (Homo sapiens), P07949 [V804M] (P07949 whole entry V804M): as the sequence (P07949 whole entry V804L) above, with L804M counted along it

[6] = biological target: Proto-oncogene tyrosine-protein kinase receptor Ret (Homo sapiens, UniProt P07949); assay: as §1; conditions: at 1 µM
Sequence of Proto-oncogene tyrosine-protein kinase receptor Ret (P07949 whole entry): as the sequence (P07949 whole entry V804L) above, with L804V counted along it

[7] = biological target: Mitogen-activated protein kinase 6 (Homo sapiens) (UniProt Q16659); assay: Selectivity interaction (KinomeScan (DiscoverX)) EUB0001049a MAPK6; conditions: at 1 µM
[8] = tested on: Tyrosine-protein kinase ABL1 (Homo sapiens), P00519 [F317I]; assay: Selectivity interaction (KinomeScan (DiscoverX)) EUB0001049a ABL1; conditions: at 1 µM
[9] = biological target: Death-associated protein kinase 3 (Homo sapiens) (UniProt O43293); assay: Selectivity interaction (ProQinase) EUB0000171b DAPK3
Sequence of Death-associated protein kinase 3 (Homo sapiens) (O43293 whole entry, looked up): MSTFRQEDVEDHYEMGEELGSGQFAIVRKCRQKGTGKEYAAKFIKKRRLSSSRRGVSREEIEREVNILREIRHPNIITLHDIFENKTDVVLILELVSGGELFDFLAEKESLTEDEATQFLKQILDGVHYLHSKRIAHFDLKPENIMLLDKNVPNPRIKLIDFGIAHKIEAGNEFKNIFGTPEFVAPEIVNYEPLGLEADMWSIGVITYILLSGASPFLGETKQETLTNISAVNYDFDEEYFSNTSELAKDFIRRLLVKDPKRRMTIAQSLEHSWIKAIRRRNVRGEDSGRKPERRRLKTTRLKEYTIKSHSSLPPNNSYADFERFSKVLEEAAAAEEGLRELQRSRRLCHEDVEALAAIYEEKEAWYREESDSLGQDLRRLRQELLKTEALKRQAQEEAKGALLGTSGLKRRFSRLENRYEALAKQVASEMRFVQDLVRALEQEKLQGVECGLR

[10] = biological target: Fibroblast growth factor receptor 2 (Homo sapiens) (UniProt P21802); assay: Selectivity interaction (KinomeScan (DiscoverX)) EUB0001619a FGFR2; conditions: at 1 µM
[11] = biological target: Tyrosine-protein kinase CSK (Homo sapiens) (UniProt P41240); assay: Selectivity interaction (KinomeScan (DiscoverX)) EUB0001619a CSK; conditions: at 1 µM
Aurora kinase B = Aurora kinase B (Homo sapiens, UniProt Q96GD4); assay: Selectivity interaction (Enzymatic assay) EUB0001199aCl AURKB
[12] = biological target: Serine/threonine-protein kinase Nek7 (Homo sapiens) (UniProt Q8TDX7); assay: Selectivity interaction (KinomeScan (DiscoverX)) EUB0000607a NEK7; conditions: at 10 µM
[13] = biological target: Serine/threonine-protein kinase MRCK alpha (Homo sapiens) (UniProt Q5VT25); assay: Selectivity interaction (KinomeScan (DiscoverX)) EUB0000607a CDC42BPA; conditions: at 10 µM
Sequence of Serine/threonine-protein kinase MRCK alpha (Homo sapiens) (Q5VT25 whole entry): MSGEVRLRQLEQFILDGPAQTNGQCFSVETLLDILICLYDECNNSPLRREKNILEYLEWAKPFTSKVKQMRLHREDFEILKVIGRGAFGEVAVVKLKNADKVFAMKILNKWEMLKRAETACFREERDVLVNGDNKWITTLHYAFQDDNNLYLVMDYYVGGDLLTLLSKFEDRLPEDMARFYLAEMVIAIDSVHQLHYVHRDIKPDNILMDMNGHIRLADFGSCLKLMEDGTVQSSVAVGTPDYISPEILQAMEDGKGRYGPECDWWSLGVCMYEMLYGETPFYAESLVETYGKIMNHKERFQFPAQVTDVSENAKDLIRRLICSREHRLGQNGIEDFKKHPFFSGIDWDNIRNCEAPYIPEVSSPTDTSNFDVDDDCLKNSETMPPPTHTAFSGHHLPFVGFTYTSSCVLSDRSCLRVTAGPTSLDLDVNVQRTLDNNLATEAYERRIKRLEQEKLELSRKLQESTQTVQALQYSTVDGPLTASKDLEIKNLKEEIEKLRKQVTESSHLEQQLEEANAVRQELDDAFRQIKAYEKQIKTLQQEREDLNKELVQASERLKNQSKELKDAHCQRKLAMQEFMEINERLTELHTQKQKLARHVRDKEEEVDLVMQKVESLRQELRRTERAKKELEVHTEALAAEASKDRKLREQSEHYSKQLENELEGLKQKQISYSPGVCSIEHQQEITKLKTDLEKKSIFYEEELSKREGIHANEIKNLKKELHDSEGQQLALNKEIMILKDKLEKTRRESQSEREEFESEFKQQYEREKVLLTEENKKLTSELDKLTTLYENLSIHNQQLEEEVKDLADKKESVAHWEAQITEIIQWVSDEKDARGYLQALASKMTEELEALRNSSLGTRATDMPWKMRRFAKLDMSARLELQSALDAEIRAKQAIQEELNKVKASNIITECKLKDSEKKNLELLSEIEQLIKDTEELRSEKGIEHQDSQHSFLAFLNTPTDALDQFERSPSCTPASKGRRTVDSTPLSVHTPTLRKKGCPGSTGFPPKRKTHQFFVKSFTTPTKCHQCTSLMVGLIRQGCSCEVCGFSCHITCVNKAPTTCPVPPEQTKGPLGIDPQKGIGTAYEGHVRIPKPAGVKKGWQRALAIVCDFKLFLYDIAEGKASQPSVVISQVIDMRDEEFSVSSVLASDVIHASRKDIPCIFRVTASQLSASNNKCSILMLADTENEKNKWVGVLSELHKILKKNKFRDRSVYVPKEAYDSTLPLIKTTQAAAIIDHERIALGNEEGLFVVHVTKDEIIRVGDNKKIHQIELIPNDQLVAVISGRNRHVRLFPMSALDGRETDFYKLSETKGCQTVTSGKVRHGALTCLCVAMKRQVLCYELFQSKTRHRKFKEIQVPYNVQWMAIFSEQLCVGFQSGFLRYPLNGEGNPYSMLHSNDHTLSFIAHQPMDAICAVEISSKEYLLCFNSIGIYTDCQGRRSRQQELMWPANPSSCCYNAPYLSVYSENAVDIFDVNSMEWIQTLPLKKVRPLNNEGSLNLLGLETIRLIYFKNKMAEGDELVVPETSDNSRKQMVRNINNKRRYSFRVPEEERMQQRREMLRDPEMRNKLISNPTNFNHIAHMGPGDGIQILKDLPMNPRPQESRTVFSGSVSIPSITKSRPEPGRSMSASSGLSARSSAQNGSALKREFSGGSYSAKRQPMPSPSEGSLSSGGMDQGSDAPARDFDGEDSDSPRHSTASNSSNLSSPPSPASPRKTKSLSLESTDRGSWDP

[14] = tested on: Tyrosine-protein kinase ABL1 (Homo sapiens), P00519 [H396P]; assay: Selectivity interaction (KinomeScan (DiscoverX)) EUB0000607a ABL1; conditions: at 10 µM
[15] = biological target: T2, Dual specificity mitogen-activated protein kinase kinase 6 (Homo sapiens) (UniProt P52564); assay: Selectivity interaction (ActivX KiNativ screen (kinase selectivity in THP-1 cell lysates)) EUB0000639a MAP2K6; type: subcellular; conditions: lysate, at 0.01 µM
T2 sequence (whole entry): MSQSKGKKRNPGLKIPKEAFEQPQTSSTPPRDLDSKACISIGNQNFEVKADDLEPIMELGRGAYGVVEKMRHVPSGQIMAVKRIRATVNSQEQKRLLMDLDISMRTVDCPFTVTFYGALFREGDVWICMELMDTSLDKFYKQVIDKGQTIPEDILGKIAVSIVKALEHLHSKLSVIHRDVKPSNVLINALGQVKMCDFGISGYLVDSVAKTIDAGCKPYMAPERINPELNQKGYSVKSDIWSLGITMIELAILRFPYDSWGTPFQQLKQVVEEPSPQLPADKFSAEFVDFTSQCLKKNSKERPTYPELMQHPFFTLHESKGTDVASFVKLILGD

[16] = biological target: T3, Phosphorylase b kinase gamma catalytic chain, liver/testis isoform (Homo sapiens) (UniProt P15735); assay: Selectivity interaction (ActivX KiNativ screen (kinase selectivity in THP-1 cell lysates)) EUB0000639a PHKG2; type: subcellular; conditions: lysate
T3 sequence (whole entry): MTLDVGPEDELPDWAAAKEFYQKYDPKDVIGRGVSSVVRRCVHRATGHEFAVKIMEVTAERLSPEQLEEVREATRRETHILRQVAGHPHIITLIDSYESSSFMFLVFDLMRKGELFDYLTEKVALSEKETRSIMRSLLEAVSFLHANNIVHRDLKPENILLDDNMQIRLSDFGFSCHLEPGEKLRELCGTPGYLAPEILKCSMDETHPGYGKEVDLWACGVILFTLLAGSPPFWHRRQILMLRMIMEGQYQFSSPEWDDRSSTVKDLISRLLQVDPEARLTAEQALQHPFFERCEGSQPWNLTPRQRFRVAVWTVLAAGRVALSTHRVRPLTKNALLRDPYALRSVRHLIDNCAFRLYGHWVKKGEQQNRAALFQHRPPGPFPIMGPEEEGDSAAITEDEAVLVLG

[17] = biological target: T4, Cyclin-dependent kinase 7 (Homo sapiens, UniProt P50613); assay: Selectivity interaction (KinomeScan (DiscoverX)) EUB0000655a CDK7; conditions: at 10 µM
T4 sequence (P50613 whole entry): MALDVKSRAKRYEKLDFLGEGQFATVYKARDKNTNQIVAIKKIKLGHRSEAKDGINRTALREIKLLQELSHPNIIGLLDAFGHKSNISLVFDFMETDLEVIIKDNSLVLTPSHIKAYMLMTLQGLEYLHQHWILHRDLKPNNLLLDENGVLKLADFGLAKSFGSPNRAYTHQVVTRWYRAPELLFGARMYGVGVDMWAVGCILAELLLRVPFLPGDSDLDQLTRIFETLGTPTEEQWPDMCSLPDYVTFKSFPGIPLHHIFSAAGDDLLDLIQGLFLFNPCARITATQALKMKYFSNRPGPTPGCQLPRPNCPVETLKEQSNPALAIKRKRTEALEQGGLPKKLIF

[18] = biological target: T4, Cyclin-dependent kinase 7; conditions: at 10 µM

## C=CC(=O)Nc1ccc(C(=O)Nc2[nH]nc3c2CN(C(=O)N[C@H](CN(C)C)c2ccccc2)C3(C)C)cc1
[1]
  % of engagement: 2%

## CN(C(=O)c1cnn2cccnc12)c1cc2c(cc1N1CCOCC1)C(=O)N(C[C@@H](F)C(C)(C)O)C2
[2]
  dTM: 1 K

## Nc1cnc(N2CCc3cc(S(=O)(=O)Nc4c(F)cc(Cl)cc4F)cc(N4CCCC4=O)c32)nc1 [TP-020n]
[3]
  % of control: 99%
[4]
  % of control: 100%
[5]
  % of control: 100%
[6]
  % of control: 89%

## COc1cc(Nc2nc(C)cc(-c3cnn4nc(OC)ccc34)n2)cc(C(F)(F)F)c1
[7]
  % of control: 92%
[8]
  % of control: 67%

## C=CC(=O)Nc1cccc(C(=O)Nc2ccc(Nc3cc(-c4[nH]c(SC)nc4C)ccn3)cc2)c1
[9]; at 1 µM
  % of control: 88%
[9]; at 5 µM
  % of control: 88%

## N#Cc1cccc(-c2c[nH]c3ncnc(N4CCOCC4)c23)c1
[10]
  % of control: 100%
[11]
  % of control: 96%

## CN1Cc2nccc(-c3cn(C)nc3-c3ccc(F)cc3)c2C1=O
Aurora kinase B
  IC50: 10.2 µM

## CNC(=O)Nc1ccc(-c2nc(N3CC4CCC(C3)O4)c3cnn(C4CCC5(CC4)OCCO5)c3n2)cc1
[12]
  % of control: 100%
[13]
  % of control: 100%
[14]
  % of control: 100%

## CC[C@@H]1[C@H](F)C(=O)N[C@@H]1COc1nccc2cc(C(N)=O)c(OC)cc12 [ZIMLOVISERTIB]
[15]
  % of inhibition: 7.4%
[16]; at 0.01 µM
  % of inhibition: 15.9%
[16]; at 0.04 µM
  % of inhibition: 3.7%
[16]; at 0.2 µM
  % of inhibition: 0.2%
[16]; at 1 µM
  % of inhibition: -8.2%
[16]; at 5 µM
  % of inhibition: 7%

## CN(C)CCOc1ccc(-c2nc(-c3ccncc3)c(-c3ccc4c(c3)CC/C4=N\O)[nH]2)cc1
[17]
  % of control: 93%

## CCN(CC)CCCCNc1ncc2cc(-c3cc(OC)cc(OC)c3)c(NC(=O)NC(C)(C)C)nc2n1
[18]
  % of control: 100%
